According to ChEMBL document CHEMBL1201862, “PubChem BioAssay data set” (2004):
Activity calls are given as the source filed them.

What was measured:
[1] = M. tuberculosis H37Rv growth inhibitors, H37Rv strain (AID 1626); assay type: functional
[2] = biological target: T1, Sphingosine 1-phosphate receptor 2 (Homo sapiens, UniProt O95136); test: Dose Response Cell Based Assay for Antagonists of the S1P2 Receptor. [Related pubchem assays: 856, 736 ]; assay type: functional
[3] = biological target: T1, Sphingosine 1-phosphate receptor 2; test: Dose Response Cell Based Assay for Agonists of the S1P2 Receptor. [Related pubchem assays: 729, 736, 843 ]; assay type: functional
[4] = biological target: T2, Endoribonuclease toxin MazF (Escherichia coli K-12, UniProt P0AE70); test: MazF toxin RNase activators, dose response, biochemical, fluorescence, single-stranded RNA substrate, uHTS hits (AID 588481); assay type: functional
T2 sequence (P0AE70 whole entry): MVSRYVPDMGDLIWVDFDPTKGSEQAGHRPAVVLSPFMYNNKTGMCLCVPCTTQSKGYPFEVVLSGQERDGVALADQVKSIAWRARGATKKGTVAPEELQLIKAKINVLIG

[5] = biological target: Ephrin type-A receptor 4 (Mus musculus, UniProt Q03137); test: inhibitors of EphA4 binding to KYL peptide, primary screen, biochemical, colorimetric, mouse EphA4 (AID 689); assay type: functional
Ephrin type-A receptor 4, sequence (Q03137 whole entry): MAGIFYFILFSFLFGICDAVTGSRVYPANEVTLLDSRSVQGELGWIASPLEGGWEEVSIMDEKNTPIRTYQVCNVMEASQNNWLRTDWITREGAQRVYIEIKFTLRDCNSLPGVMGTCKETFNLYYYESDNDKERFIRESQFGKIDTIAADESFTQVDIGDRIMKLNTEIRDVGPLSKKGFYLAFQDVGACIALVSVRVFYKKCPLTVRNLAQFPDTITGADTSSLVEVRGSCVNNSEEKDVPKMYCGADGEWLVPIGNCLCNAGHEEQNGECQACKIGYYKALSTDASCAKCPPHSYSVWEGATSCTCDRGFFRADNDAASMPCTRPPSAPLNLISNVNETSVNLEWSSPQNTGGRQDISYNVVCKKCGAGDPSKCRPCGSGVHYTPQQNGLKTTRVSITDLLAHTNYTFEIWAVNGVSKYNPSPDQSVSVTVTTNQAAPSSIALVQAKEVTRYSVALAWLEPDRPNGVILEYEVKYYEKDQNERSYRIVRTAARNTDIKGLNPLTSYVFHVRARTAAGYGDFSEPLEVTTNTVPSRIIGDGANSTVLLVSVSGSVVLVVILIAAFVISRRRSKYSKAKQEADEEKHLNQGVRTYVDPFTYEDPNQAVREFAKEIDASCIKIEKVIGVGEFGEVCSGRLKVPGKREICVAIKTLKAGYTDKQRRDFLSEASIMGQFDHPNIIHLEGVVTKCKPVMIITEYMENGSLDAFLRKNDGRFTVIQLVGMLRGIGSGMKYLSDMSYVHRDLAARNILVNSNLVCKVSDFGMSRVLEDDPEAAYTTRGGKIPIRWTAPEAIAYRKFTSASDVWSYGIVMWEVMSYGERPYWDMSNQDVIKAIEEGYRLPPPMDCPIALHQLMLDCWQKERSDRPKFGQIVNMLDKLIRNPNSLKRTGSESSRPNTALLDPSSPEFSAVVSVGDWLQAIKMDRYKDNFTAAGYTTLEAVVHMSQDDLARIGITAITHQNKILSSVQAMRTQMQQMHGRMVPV

[6] = biological target: T2, Endoribonuclease toxin MazF; test: fluorescent RNA oligo signal without MazF, dose response, counter-screen for MazEF activator project, biochemical, fluorescence, single-stranded RNase substrate (AID 588502); assay type: functional
[7] = biological target: T3, Corticotropin-releasing factor receptor 2/Corticotropin-releasing factor-binding protein (Homo sapiens, UniProt P24387+Q13324); test: activators of CRF receptor 2 with binding protein – uHTS hits, confirmation (AID 602473); assay type: functional; settings: read-out: EC50_Mean
T3 sequence (Q13324 whole entry): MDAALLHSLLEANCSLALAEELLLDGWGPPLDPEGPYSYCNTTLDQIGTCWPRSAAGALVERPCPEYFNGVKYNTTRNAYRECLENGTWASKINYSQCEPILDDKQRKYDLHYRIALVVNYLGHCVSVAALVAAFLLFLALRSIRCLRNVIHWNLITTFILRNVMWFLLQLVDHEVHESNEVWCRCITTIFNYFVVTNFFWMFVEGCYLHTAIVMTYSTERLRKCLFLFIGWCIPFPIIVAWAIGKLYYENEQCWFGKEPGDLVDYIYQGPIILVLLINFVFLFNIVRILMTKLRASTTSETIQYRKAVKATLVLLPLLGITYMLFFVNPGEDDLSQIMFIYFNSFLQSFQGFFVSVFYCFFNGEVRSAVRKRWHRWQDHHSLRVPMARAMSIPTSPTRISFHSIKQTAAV
T3 sequence (P24387 whole entry): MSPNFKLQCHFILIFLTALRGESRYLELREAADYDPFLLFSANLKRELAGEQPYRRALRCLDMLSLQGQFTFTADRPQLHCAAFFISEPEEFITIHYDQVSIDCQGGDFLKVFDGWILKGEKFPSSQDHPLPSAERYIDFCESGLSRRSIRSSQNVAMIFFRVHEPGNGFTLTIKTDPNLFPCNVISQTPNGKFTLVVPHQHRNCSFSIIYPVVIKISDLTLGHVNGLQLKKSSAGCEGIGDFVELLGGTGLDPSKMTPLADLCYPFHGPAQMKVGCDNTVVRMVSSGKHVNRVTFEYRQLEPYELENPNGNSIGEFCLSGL

[8] = cells
[9] = cytotoxicity toward NIH3T3 fibroblasts, dose response, counter-screen, cell-based, ATP luminescence, mouse fibroblasts (AID 2010); assay type: functional;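 further: cells exposed to compound for about 90 hours before reading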
[10] = biological target: T4, Fatty acid synthase (Homo sapiens, UniProt P49327); test: FAS thioesterase domain inhibitors, dose response, biochemical, kinetic fluorescence intensity (AID 624326); assay type: functional;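 further: rate of fluorescence rise from hydrolysis of a fluorogenic O-methyl fluorescein ester substrate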
T4 sequence (P49327 whole entry, the tested form may be a part): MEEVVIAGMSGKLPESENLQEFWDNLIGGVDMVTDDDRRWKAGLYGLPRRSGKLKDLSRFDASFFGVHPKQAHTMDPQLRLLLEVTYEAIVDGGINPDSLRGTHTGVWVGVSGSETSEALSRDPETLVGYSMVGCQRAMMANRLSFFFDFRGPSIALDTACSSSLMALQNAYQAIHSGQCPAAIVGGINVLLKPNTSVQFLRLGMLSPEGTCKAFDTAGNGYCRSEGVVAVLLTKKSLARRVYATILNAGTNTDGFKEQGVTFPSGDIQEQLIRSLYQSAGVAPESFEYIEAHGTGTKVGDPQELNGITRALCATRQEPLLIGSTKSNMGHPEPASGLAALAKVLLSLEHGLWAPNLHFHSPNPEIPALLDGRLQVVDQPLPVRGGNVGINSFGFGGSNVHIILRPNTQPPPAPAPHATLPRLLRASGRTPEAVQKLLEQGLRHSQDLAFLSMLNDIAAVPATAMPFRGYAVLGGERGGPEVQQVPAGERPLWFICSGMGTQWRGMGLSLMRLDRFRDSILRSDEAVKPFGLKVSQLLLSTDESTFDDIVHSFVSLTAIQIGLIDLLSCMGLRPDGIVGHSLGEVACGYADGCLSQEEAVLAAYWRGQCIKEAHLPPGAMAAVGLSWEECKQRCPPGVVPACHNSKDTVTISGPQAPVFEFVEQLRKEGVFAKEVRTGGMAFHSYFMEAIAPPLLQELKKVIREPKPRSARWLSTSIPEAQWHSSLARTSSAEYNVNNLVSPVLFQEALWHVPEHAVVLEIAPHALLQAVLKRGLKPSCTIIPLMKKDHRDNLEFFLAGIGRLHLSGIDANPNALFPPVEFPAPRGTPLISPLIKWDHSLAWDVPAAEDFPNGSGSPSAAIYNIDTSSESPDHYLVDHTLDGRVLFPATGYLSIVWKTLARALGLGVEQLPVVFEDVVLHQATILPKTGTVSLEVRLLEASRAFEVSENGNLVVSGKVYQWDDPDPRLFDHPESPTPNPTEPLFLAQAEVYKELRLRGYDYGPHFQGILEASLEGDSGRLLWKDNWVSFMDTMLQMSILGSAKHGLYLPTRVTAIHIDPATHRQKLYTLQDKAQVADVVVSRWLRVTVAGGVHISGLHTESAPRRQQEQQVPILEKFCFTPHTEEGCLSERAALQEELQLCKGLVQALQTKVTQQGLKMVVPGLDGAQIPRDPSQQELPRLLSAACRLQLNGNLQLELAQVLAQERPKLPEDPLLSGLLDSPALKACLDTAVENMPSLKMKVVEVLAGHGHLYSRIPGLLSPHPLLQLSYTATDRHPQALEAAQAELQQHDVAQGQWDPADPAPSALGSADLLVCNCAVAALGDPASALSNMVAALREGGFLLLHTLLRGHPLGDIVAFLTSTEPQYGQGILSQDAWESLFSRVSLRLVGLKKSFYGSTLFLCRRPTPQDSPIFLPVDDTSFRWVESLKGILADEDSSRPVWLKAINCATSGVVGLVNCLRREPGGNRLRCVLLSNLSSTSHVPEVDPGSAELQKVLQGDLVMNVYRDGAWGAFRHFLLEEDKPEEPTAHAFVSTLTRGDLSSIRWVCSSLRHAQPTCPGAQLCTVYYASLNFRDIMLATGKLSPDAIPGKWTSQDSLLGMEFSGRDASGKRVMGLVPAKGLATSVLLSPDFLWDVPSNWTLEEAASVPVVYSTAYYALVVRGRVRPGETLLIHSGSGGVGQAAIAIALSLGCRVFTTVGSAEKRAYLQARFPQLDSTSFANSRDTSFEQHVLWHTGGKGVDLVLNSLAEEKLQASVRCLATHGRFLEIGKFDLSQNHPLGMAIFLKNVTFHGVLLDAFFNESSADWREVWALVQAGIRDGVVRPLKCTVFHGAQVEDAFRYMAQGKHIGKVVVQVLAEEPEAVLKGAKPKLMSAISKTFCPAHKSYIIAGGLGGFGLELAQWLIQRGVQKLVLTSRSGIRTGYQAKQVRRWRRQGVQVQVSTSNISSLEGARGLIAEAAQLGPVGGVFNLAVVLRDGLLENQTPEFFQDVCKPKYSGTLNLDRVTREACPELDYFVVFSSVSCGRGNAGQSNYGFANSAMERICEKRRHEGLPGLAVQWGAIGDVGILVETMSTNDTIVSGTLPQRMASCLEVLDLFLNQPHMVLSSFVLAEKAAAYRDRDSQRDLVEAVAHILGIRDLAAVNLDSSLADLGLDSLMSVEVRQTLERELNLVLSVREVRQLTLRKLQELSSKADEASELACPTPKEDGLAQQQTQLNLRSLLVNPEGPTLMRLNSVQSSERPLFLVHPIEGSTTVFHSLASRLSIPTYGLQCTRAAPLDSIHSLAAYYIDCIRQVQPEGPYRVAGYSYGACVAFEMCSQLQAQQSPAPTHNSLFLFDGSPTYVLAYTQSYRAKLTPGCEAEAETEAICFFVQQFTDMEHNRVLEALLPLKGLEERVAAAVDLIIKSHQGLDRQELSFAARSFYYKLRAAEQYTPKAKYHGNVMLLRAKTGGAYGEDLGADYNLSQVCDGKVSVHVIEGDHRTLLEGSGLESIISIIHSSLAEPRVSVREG

[11] = biological target: T4, Fatty acid synthase; test: FAS thioesterase domain inhibitors, dose response, biochemical, endpoint fluorescence intensity, uHTS hits (AID 624327); assay type: functional;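 further: fluorescence from hydrolysis of an O-methyl fluorescein acyl ester substrate by the enzyme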
[12] = inhibitors of intracellular T. cruzi replication, confirmation, NIH3T3 host cells, beta-gal luminescence (AID 2044); assay type: functional, cell-based;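 further: intracellular parasites grown in NIH/3T3 mouse fibroblasts as host cells; luminescent beta-galactosidase reporter signal from transgenic T. cruzi replicating inside host cells; inhibitors lower the luminescence signal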
[13] = biological target: Dual specificity tyrosine-phosphorylation-regulated kinase 1A (Rattus norvegicus, UniProt Q63470); assay type: biochemical, Homo sapiens
[14] = biological target: Oxysterols receptor LXR-beta (Homo sapiens, UniProt P55055); test: LXR agonists, Gal4 luciferase reporter, dose response, counter-screen for ssDAF-12 agonist project, cell-based, luminescence, HEK293, S. stercoralis campaign (AID 720737); assay type: functional; settings: read-out: IC50 (the source's name)
Oxysterols receptor LXR-beta, sequence (P55055 whole entry, the tested form may be a part): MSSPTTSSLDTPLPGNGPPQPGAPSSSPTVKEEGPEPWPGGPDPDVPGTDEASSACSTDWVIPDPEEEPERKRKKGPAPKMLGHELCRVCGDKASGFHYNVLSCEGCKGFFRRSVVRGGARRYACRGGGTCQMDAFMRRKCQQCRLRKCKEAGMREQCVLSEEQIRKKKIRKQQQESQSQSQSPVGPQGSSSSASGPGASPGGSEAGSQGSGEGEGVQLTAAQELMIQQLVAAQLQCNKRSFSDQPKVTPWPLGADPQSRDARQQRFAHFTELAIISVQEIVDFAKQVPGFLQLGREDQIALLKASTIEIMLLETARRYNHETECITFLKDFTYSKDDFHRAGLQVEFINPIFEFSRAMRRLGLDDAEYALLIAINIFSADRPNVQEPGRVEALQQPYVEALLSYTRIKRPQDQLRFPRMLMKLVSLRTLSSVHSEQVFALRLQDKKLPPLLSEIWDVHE

[15] = Luminescence-based cell-based high throughput dose response assay to identify activators of the DAF-12 from the parasite S. stercoralis (ssDAF-12).; assay type: functional
[16] = biological target: FAD-linked sulfhydryl oxidase ALR (Homo sapiens, UniProt P55789); test: inhibitors of human ALR sulfhydryl oxidase, dose response, biochemical, H2O2 detection, luminescence, cherry-pick (AID 493248)
FAD-linked sulfhydryl oxidase ALR, sequence (P55789 whole entry): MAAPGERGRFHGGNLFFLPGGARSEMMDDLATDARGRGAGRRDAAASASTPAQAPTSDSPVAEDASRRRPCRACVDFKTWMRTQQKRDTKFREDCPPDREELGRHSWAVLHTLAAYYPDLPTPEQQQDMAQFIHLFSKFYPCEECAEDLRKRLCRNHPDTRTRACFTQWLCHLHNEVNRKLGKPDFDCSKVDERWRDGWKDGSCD

[17] = inhibitors of PGC1a acetylation in cells, dose response, cell-based, cherry-picked samples (AID 720514); assay type: functional;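 further: potency may reflect raised or lowered acetylation signal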

T1 sequence (O95136 whole entry): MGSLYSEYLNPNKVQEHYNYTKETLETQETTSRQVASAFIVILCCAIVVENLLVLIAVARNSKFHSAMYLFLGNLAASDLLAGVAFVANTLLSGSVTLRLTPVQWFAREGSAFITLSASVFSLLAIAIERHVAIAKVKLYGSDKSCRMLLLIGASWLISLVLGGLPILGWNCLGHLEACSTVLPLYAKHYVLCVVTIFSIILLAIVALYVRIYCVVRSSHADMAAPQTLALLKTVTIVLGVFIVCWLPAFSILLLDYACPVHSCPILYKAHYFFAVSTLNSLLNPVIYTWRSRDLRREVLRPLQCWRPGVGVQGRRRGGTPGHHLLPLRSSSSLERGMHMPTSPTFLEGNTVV

For `O=C(CCSc1ccc(Cl)cc1)c1cccs1`, the IC50 [1] was > 100 µM (active).
In the case of `Cc1ccc2[nH]c3c(N4CCCCCC4)ncnc3c2c1`, the IC50 [2] is reported as 3.44 µM (active).
In the case of `CCCc1nn(-c2cc(Cl)ccc2OC)c2c1C(=O)CCC2`, the EC50 [3] is reported as > 50 µM (not active).
In the case of `CCCn1nc(-c2ccccc2)c2nc3ccccc3nc21`, the EC50 [4] is reported as > 99 µM (inactive), the IC50 [5] is reported as 10.3 µM (active) and the EC50 [6] is reported as 61.7 µM (inactive). For the same compound, the EC50 [7] was 5.23 µM (active).
In the case of `CN(CCO)c1cc(NCCCN2CCC(Cc3ccccc3)CC2)c2nonc2c1[N+](=O)[O-]`, the EC50 [8] is reported as 0.215 µM (active), the EC50 [9] is reported as > 60 µM (not active) and the IC50 [10] is reported as 6.52 µM (active). For the same compound, the IC50 [11] was 12.2 µM (active) and the EC50 [12] was < 0.1 µM (active).
For `O/C(=C\c1nc2ccccc2nc1/C=C(\O)c1ccccc1)c1ccccc1`, the IC50 [1] was > 100 µM (active).
With `CN1CCc2nc3sc(C#N)c(N)c3c(-c3cccs3)c2C1` the EC50 [8] was 0.06 µM (active), the EC50 [9] was > 60 µM (not active) and the AC50 [13] was 3.27 µM (active). The EC50 [12] was < 0.1 µM (active).
For `N#C/C(=C\c1ccc[nH]1)C(=O)Nc1ccccc1F`, the EC50 [14] was > 67.5 µM (inactive) and the IC50 [15] was > 67.5 µM (inactive).
With `Cc1cc(C)c(S(=O)(=O)Nc2ccc(O)cc2)cc1C` the AC50 [16] was 0.926 µM (active) and the EC50 [3] was > 50 µM (not active).
In the case of `COc1ccc(F)cc1CN1CCN(CC(=O)N2CCc3ccccc32)CC1`, the AC50 [17] is reported as 24.9 µM (active).
